Measurements from PubChem BioAssay AID1918942 (Molecular Pharmacology Branch, DTP, NCI, 2023).

Tested on: 743489-274-T-PDC complex spheroid viability
Assay: Anticancer human tumor 743489-274-T-PDC patient-derived renal cell carcinoma cell line growth inhibition
Conditions: for IC50: curve of first compound; for viability, T/C: stronger effect = lower value
Method in brief: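 Complex spheroids of tumor cells with HUVEC and human MSCs, exposed to iadademstat combined with other agents. Each agent tested in half-log steps from near clinical Cmax (else 10 microM top), DMSO ≤0.25%.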

[1] = second compound 0.1 µM, first compound 0.0316 µM
[2] = second compound 0.1 µM, first compound 0.1 µM
[3] = second compound 0.1 µM, first compound 0.316 µM
[4] = second compound 0.1 µM, first compound 1 µM
[5] = second compound 0.1 µM, first compound 3.16 µM
[6] = second compound 0.1 µM, first compound 10 µM
[7] = second compound 0.316 µM, first compound 0.0316 µM
[8] = second compound 0.316 µM, first compound 0.1 µM
[9] = second compound 0.316 µM, first compound 0.316 µM
[10] = second compound 0.316 µM, first compound 1 µM
[11] = second compound 0.316 µM, first compound 3.16 µM
[12] = second compound 0.316 µM, first compound 10 µM
[13] = second compound 1 µM, first compound 0.0316 µM
[14] = second compound 1 µM, first compound 0.1 µM
[15] = second compound 1 µM, first compound 0.316 µM
[16] = second compound 1 µM, first compound 1 µM
[17] = second compound 1 µM, first compound 3.16 µM
[18] = second compound 1 µM, first compound 10 µM
[19] = second compound 3.16 µM, first compound 0.0316 µM
[20] = second compound 3.16 µM, first compound 0.1 µM
[21] = second compound 3.16 µM, first compound 0.316 µM
[22] = second compound 3.16 µM, first compound 1 µM
[23] = second compound 3.16 µM, first compound 3.16 µM
[24] = second compound 3.16 µM, first compound 10 µM
[25] = second compound 10 µM, first compound 0.0316 µM
[26] = second compound 10 µM, first compound 0.1 µM
[27] = second compound 10 µM, first compound 0.316 µM
[28] = second compound 10 µM, first compound 1 µM
[29] = second compound 10 µM, first compound 3.16 µM
[30] = second compound 10 µM, first compound 10 µM
[31] = second compound 0.1 µM, first compound 0.00316 µM
[32] = second compound 0.1 µM, first compound 0.01 µM
[33] = second compound 0.316 µM, first compound 0.00316 µM
[34] = second compound 0.316 µM, first compound 0.01 µM
[35] = second compound 1 µM, first compound 0.00316 µM
[36] = second compound 1 µM, first compound 0.01 µM
[37] = second compound 3.16 µM, first compound 0.00316 µM
[38] = second compound 3.16 µM, first compound 0.01 µM
[39] = second compound 10 µM, first compound 0.00316 µM
[40] = second compound 10 µM, first compound 0.01 µM
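Note: spheroids exposed to compounds for 7 days before readout.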
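Throughout, for viability, T/C: 100% = DMSO vehicle control wells.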

`CC(C)c1c(-c2ccccc2)nc2c(C#N)c[nH]n2c1=O` + NC1CCC(NC2CC2c2ccccc2)CC1 was tested, and the IC50 (second compound 0.1 µM) was over 10000 nM, the IC50 (second compound 0.316 µM) was over 10000 nM and the IC50 (second compound 1 µM) was over 10000 nM. It also gave an IC50 (second compound 3.16 µM) of over 10000 nM, an IC50 (second compound 10 µM) of over 10000 nM and a viability, T/C [1] of 97.2%. It also gave a viability, T/C [2] of 115%, a viability, T/C [3] of 104% and a viability, T/C [4] of 127%. The viability, T/C [5] was 99.9%, the viability, T/C [6] was 104% and the viability, T/C [7] was 106%. It also gave a viability, T/C [8] of 99.3%, a viability, T/C [9] of 126% and a viability, T/C [10] of 108%. The viability, T/C [11] was 108%, the viability, T/C [12] was 104% and the viability, T/C [13] was 119%. It also gave a viability, T/C [14] of 120%, a viability, T/C [15] of 100% and a viability, T/C [16] of 111%. It also gave a viability, T/C [17] of 105%, a viability, T/C [18] of 114% and a viability, T/C [19] of 111%. For the same compound, the viability, T/C [20] was 111%, the viability, T/C [21] was 114% and the viability, T/C [22] was 119%. The viability, T/C [23] was 98.8%, the viability, T/C [24] was 112% and the viability, T/C [25] was 118%. For the same compound, the viability, T/C [26] was 121%, the viability, T/C [27] was 130% and the viability, T/C [28] was 121%. It also gave a viability, T/C [29] of 120% and a viability, T/C [30] of 104%.
For `CC1COCCN1c1cc(-c2ccnn2C)c2ccnc(-c3ccn[nH]3)c2n1` (stereo not given) + NC1CCC(NC2CC2c2ccccc2)CC1, the IC50 (second compound 0.1 µM) was over 1000 nM, the IC50 (second compound 0.316 µM) was over 1000 nM and the IC50 (second compound 1 µM) was over 1000 nM. It also gave an IC50 (second compound 3.16 µM) of over 1000 nM, an IC50 (second compound 10 µM) of over 1000 nM and a viability, T/C [31] of 111%. It also gave a viability, T/C [32] of 109%, a viability, T/C [1] of 107% and a viability, T/C [2] of 92.6%. The viability, T/C [3] was 81.6%, the viability, T/C [4] was 64% and the viability, T/C [33] was 126%. For the same compound, the viability, T/C [34] was 110%, the viability, T/C [7] was 114% and the viability, T/C [8] was 87.1%. It also gave a viability, T/C [9] of 83%, a viability, T/C [10] of 62.7% and a viability, T/C [35] of 109%. It also gave a viability, T/C [36] of 128%, a viability, T/C [13] of 118% and a viability, T/C [14] of 98%. The viability, T/C [15] was 90.2%, the viability, T/C [16] was 59.5% and the viability, T/C [37] was 122%. It also gave a viability, T/C [38] of 138%, a viability, T/C [19] of 110% and a viability, T/C [20] of 101%. It also gave a viability, T/C [21] of 84.5%, a viability, T/C [22] of 76.1% and a viability, T/C [39] of 131%. It also gave a viability, T/C [40] of 117%, a viability, T/C [25] of 129% and a viability, T/C [26] of 105%. It also gave a viability, T/C [27] of 88.9% and a viability, T/C [28] of 71.7%.
In the case of `COc1ccc([C@@H](O)c2cc(-c3ncnc4cc(N5CCOCC5)ccc34)c(F)cc2Cl)nn1` + NC1CCC(NC2CC2c2ccccc2)CC1, the IC50 (second compound 0.1 µM) is reported as 2810 nM, the IC50 (second compound 0.316 µM) is reported as 2310 nM and the IC50 (second compound 1 µM) is reported as 1670 nM. The IC50 (second compound 3.16 µM) was 1850 nM, the IC50 (second compound 10 µM) was 1900 nM and the viability, T/C [1] was 110%. For the same compound, the viability, T/C [2] was 109%, the viability, T/C [3] was 87.2% and the viability, T/C [4] was 70.9%. For the same compound, the viability, T/C [5] was 47.1%, the viability, T/C [6] was 34.9% and the viability, T/C [7] was 125%. For the same compound, the viability, T/C [8] was 121%, the viability, T/C [9] was 99% and the viability, T/C [10] was 65.9%. It also gave a viability, T/C [11] of 46.9%, a viability, T/C [12] of 18.6% and a viability, T/C [13] of 125%. For the same compound, the viability, T/C [14] was 112%, the viability, T/C [15] was 101% and the viability, T/C [16] was 61.6%. It also gave a viability, T/C [17] of 34.1%, a viability, T/C [18] of 19.4% and a viability, T/C [19] of 124%. For the same compound, the viability, T/C [20] was 123%, the viability, T/C [21] was 92.9% and the viability, T/C [22] was 62.2%. For the same compound, the viability, T/C [23] was 41.6%, the viability, T/C [24] was 17% and the viability, T/C [25] was 117%. For the same compound, the viability, T/C [26] was 120%, the viability, T/C [27] was 102% and the viability, T/C [28] was 66.1%. For the same compound, the viability, T/C [29] was 38.2% and the viability, T/C [30] was 26.4%.
In the case of `O=C(C=Cn1cnc(-c2cc(C(F)(F)F)cc(C(F)(F)F)c2)n1)NNc1cnccn1` + NC1CCC(NC2CC2c2ccccc2)CC1, the IC50 (second compound 0.1 µM) is reported as over 1000 nM, the IC50 (second compound 0.316 µM) is reported as over 1000 nM and the IC50 (second compound 1 µM) is reported as over 1000 nM. The IC50 (second compound 3.16 µM) was over 1000 nM, the IC50 (second compound 10 µM) was over 1000 nM and the viability, T/C [31] was 102%. For the same compound, the viability, T/C [32] was 112%, the viability, T/C [1] was 113% and the viability, T/C [2] was 114%. The viability, T/C [3] was 102%, the viability, T/C [4] was 96% and the viability, T/C [33] was 95%. For the same compound, the viability, T/C [34] was 107%, the viability, T/C [7] was 131% and the viability, T/C [8] was 106%. For the same compound, the viability, T/C [9] was 97.8%, the viability, T/C [10] was 81.3% and the viability, T/C [35] was 103%. The viability, T/C [36] was 119%, the viability, T/C [13] was 130% and the viability, T/C [14] was 113%. It also gave a viability, T/C [15] of 91.6%, a viability, T/C [16] of 81.8% and a viability, T/C [37] of 112%. The viability, T/C [38] was 121%, the viability, T/C [19] was 140% and the viability, T/C [20] was 116%. The viability, T/C [21] was 91.8%, the viability, T/C [22] was 82.5% and the viability, T/C [39] was 120%. It also gave a viability, T/C [40] of 124%, a viability, T/C [25] of 126% and a viability, T/C [26] of 113%. The viability, T/C [27] was 102% and the viability, T/C [28] was 95.9%.
